What all share (experiment): KinomeScan profiling
Holding throughout (assay type): binding

One assay addresses CAMK2G (Homo sapiens, UniProt Q13555). The conditions noted are these: read-out: % control. The procedure, abridged: (§1)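 Luminescence (RLU) was converted to percent of control, with DMSO set as 100% and a reference compound as 0%. Test compounds were run at 1 μM against 468 kinases. Kinases showing below 35% of control were scored as bound.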
The target in a further assay is T1, EPHB1 (Homo sapiens, UniProt P54762).
T1 sequence (P54762 18-984): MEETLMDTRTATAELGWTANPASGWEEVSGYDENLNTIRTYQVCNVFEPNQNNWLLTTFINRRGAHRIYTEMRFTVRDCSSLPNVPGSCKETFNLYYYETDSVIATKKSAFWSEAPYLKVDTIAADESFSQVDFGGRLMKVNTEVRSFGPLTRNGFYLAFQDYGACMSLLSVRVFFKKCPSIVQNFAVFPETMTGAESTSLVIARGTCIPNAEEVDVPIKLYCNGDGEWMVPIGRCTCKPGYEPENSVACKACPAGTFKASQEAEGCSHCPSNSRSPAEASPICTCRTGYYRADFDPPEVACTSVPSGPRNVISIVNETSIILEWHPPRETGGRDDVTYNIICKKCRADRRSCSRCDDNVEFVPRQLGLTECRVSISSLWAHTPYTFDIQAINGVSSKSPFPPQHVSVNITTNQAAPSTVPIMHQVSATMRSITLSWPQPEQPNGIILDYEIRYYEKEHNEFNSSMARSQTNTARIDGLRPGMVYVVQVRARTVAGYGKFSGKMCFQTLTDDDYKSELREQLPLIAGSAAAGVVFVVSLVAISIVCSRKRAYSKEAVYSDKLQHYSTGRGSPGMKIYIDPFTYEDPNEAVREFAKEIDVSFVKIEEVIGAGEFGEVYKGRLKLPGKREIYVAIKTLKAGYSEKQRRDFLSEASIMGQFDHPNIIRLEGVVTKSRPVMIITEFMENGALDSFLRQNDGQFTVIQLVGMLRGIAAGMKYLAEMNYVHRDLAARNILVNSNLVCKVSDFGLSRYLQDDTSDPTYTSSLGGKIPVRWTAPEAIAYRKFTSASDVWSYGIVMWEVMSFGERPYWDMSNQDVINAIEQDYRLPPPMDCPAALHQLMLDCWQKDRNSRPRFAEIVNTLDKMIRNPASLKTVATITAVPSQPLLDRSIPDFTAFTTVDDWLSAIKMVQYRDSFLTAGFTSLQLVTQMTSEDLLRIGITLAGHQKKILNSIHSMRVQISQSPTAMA
The conditions noted are these: EPHB1, 1 μM; read-out: % control. The procedure, abridged: as §1

A further assay deals with IGF1R (Homo sapiens, UniProt P08069). As to conditions: read-out: % control. The procedure, abridged: as §1
Sequence of IGF1R (P08069 31-1367): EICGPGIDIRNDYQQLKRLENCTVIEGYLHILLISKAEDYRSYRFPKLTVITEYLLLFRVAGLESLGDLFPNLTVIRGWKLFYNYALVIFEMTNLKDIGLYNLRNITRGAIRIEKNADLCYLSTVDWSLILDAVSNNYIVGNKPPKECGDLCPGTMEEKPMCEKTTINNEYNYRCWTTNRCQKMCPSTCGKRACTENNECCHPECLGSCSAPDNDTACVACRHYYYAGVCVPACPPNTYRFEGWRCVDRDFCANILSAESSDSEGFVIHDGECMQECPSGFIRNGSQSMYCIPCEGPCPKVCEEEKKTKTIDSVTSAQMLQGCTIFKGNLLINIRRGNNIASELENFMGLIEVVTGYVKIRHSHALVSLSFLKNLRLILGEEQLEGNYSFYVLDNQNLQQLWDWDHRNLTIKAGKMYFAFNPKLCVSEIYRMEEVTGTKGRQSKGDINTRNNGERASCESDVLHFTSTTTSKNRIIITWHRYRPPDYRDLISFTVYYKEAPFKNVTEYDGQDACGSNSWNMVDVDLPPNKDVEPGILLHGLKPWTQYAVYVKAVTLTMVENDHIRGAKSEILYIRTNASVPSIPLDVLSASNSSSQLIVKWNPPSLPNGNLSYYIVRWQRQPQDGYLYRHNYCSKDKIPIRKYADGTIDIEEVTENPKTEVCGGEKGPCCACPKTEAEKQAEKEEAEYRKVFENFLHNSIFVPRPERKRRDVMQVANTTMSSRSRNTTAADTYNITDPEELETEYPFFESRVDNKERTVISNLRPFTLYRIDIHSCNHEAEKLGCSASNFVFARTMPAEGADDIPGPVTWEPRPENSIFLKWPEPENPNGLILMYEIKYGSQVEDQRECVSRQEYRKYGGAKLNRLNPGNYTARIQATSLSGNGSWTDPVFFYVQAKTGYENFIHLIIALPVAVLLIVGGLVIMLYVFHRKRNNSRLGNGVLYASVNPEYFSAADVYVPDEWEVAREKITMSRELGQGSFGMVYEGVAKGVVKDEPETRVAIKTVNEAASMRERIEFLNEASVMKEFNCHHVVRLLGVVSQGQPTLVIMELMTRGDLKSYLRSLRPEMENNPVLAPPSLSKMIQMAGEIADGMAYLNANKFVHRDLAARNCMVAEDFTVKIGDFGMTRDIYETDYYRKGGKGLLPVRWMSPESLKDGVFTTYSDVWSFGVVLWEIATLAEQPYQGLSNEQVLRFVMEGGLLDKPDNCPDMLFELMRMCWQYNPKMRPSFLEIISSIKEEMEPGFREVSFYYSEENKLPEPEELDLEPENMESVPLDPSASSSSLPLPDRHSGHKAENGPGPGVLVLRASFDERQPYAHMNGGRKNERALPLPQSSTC
The target of assay [1] is T2, JAK1(JH1domain-catalytic) (Homo sapiens, UniProt P23458).
T2 construct: JAK1(JH1domain-catalytic); purchased KinomeScan®
T2 sequence (P23458 875-1153 limits assumed): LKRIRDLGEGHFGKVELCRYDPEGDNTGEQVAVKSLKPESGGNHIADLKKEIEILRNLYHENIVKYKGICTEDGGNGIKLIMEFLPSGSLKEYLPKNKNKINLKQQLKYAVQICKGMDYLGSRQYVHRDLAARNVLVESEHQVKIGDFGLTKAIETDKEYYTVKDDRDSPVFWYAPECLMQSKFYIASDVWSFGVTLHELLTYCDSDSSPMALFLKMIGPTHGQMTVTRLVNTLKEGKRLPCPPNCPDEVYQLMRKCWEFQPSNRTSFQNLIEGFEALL
As to conditions: read-out: % control. The procedure, abridged:
as §1

A further assay deals with NIM1 (Homo sapiens, UniProt Q8IY84). As to conditions: NIM1, 1 μM; read-out: % control. The procedure, abridged: as §1
Sequence of NIM1 (Q8IY84 whole entry): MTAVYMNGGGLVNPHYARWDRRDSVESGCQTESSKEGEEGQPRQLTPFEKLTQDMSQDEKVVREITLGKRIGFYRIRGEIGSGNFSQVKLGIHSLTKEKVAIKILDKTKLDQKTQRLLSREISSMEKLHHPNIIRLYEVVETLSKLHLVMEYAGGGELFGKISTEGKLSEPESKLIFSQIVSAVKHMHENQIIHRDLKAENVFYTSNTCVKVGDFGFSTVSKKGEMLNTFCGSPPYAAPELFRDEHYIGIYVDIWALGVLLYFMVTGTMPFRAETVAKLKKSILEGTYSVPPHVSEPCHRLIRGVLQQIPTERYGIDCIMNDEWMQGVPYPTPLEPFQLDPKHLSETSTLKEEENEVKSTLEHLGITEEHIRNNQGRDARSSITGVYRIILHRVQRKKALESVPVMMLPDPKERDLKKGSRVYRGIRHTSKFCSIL
A further assay deals with T3, PKMYT1 (Homo sapiens, UniProt Q99640).
T3 sequence (Q99640 1-499): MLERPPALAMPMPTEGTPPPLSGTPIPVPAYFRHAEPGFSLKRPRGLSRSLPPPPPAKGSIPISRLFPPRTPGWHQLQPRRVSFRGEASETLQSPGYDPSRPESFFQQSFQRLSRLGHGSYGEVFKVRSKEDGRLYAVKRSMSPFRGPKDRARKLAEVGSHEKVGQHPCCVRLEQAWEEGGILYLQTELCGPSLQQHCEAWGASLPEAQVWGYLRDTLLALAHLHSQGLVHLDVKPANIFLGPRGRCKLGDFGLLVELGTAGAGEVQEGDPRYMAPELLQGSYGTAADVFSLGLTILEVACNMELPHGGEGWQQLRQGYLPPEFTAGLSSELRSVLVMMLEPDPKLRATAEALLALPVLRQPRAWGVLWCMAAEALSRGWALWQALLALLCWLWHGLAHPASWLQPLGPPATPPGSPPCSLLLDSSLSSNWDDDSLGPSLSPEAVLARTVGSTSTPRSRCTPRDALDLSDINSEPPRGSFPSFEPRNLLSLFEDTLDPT
The conditions noted are these: PKMYT1, 1 μM; read-out: % control. Put shortly: as §1

The next assay addresses RIPK2 (Homo sapiens, UniProt O43353). As to conditions: RIPK2, 1 μM; read-out: % control. Put shortly:
as §1

Another assay deals with T4, TSSK1B (Homo sapiens, UniProt Q9BXA7).
T4 sequence (Q9BXA7 1-367): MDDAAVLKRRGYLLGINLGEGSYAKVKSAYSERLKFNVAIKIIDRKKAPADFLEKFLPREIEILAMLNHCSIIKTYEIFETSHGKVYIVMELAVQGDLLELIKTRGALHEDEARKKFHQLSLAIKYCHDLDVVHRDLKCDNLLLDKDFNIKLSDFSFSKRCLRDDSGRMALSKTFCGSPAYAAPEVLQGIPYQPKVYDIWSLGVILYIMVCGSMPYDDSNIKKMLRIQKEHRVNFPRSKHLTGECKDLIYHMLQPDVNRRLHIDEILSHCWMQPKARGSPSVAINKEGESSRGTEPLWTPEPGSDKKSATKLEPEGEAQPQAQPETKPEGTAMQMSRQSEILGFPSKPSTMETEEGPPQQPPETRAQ
The conditions noted are these: read-out: % control. The procedure, abridged: as §1

Three compounds from patent US12275731B2, “Azaindole inhibitors of wild-type and mutant forms of LRRK2” (DANA-FARBER CANCER INSTITUTE, INC., priority 2018, dated 2025) can be followed below.

Sequence of CAMK2G (Q13555 whole entry): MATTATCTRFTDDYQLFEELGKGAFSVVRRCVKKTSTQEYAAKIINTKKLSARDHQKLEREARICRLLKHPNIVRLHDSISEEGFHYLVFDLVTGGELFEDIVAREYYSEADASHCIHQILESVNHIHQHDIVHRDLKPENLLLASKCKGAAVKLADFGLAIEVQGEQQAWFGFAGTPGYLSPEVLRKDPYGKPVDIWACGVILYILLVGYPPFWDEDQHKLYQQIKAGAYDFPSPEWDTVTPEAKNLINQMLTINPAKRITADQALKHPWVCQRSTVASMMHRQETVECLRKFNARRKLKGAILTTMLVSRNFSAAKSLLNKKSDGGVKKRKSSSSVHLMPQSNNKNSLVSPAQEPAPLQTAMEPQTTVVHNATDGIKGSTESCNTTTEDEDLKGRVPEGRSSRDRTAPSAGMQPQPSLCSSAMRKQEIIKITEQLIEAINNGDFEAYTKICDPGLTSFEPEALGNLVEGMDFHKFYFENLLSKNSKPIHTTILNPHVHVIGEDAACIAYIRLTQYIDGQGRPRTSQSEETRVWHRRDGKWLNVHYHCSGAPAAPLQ
Sequence of RIPK2 (O43353 whole entry): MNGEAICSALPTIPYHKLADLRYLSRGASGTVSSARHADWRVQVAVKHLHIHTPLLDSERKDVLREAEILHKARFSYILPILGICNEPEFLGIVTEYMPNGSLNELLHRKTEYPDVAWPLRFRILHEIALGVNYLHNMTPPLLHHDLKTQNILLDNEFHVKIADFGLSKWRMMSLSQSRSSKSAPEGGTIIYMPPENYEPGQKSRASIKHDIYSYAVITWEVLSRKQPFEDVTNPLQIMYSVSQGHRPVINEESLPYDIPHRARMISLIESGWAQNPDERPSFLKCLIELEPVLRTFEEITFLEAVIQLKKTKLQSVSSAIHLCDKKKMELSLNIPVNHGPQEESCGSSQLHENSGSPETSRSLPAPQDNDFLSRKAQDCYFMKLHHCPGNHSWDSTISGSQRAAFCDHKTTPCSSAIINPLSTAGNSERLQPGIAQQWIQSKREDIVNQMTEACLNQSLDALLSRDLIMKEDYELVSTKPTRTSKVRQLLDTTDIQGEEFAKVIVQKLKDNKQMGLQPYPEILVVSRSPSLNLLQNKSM

As for `CNc1c(-c2cnn([C@H]3CCN(C(C)=O)C[C@@H]3F)c2)cnc2[nH]cc(Cl)c12` [Compound 77, 1-((3S,4S)-4-(4-(3-chloro-4-(methylamino)-1H-pyrrolo[2,3-b]pyridin-5-yl)-1H-pyrazol-1-yl)-3-fluoropiperidin-1-yl)ethan-1-one], the remaining binding at 1 µM came out at 90% on CAMK2G; 93% on EPHB1; 91% at IGF1R; 98% in assay [1]; 69% at NIM1; 98% on PKMYT1. In addition, the remaining binding at 1 µM on RIPK2 was 100%; on TSSK1B it was 99%.
With `CNc1c(-c2ccc(C(=O)N3CCC(N4CCOCC4)CC3)cc2)cnc2[nH]cc(Cl)c12` [Compound 96, (4-(3-chloro-4-(methylamino)-1H-pyrrolo[2,3-b]pyridin-5-yl)phenyl)(4-morpholinopiperidin-1-yl)methanone], the remaining binding at 1 µM at CAMK2G is 95%; at EPHB1, 100%; on IGF1R, 100%; in assay [1] it was 100%; at NIM1, 50%; on PKMYT1, 100%. The figures for the remaining binding at 1 µM on RIPK2 and on TSSK1B were 99% and 100%, respectively.
In the case of `O=C(c1ccc(-c2cnc3[nH]cc(Cl)c3c2NC2CCCC2)cc1)N1CCC(N2CCOCC2)CC1` [Compound 101, (4-(3-chloro-4-(cyclopentylamino)-1H-pyrrolo[2,3-b]pyridin-5-yl)phenyl)(4-morpholinopiperidin-1-yl)methanone], the remaining binding at 1 µM was 96% at CAMK2G; 95% at EPHB1; 86% on IGF1R; 90% in assay [1]; 99% on NIM1; 97% at PKMYT1. For the same compound, the results for the remaining binding at 1 µM on RIPK2 and on TSSK1B were 100% and 41%, respectively.
